Assay results as given in ChEMBL document CHEMBL4418315, “Atg7 inhibitors and the uses thereof” (2018).
pIC50: −log10 of the molar value.

How the values were obtained:
[1] = molecular target: T1, Ubiquitin-like modifier-activating enzyme ATG7 (Homo sapiens) (UniProt O95352); experiment: Inhibition of recombinant His-tagged human ATG7 at 0.111 uM incubated for 105 mins in presence of GST-tagged ATG3 and Flag-tagged Gabarap and measured after 2 hrs by FRET assay relative to control
T1 sequence (whole entry): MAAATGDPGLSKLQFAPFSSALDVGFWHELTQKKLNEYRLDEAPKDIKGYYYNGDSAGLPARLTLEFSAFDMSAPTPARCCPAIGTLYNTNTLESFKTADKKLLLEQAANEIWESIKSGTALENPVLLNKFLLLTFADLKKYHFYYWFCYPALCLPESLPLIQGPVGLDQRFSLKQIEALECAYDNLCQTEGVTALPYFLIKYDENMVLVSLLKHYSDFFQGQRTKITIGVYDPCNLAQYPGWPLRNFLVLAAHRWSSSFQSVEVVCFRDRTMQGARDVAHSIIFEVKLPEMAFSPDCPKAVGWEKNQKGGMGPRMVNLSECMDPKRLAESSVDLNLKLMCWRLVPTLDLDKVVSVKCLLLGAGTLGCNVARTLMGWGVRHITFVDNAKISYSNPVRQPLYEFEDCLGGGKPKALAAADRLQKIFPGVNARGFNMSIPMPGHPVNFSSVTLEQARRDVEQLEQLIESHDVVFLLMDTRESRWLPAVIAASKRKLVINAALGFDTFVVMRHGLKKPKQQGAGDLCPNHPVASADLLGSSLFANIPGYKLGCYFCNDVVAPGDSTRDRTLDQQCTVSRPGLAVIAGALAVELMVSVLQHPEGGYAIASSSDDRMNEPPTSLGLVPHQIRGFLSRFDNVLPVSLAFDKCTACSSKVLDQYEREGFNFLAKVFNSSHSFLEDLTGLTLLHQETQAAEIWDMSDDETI

[2] = molecular target: T2, Ubiquitin-like modifier-activating enzyme ATG7 (Homo sapiens, UniProt O95352); experiment: Inhibition of recombinant His-tagged human ATG7 incubated for 105 mins in presence of GST-tagged ATG3 and Flag-tagged Gabarap and measured after 2 hrs by FRET assay
T2 sequence (O95352 whole entry): T1 sequence (whole entry)

SMILES | inhibition [1] | pIC50 [2]
Nc1ncnc2c1cnn2[C@H]1C[C@H](O)[C@H](COS(N)(=O)=O)O1 | 5% | 
Cc1ccc(Sc2nn([C@H]3C[C@H](O)[C@@H](COS(N)(=O)=O)O3)c3ncnc(N)c23)c(F)c1 | 59 to 64% | 
CCc1nn([C@H]2C[C@H](O)[C@H](COS(N)(=O)=O)O2)c2ncnc(N)c12 |  | < 6.30

Results, then the molecule that gave them:

inhibition [1] | pIC50 [2] | SMILES
 | 7.30 to 7.70 | Nc1ncnc2c1c(SCCO)nn2[C@@H]1O[C@H](COS(N)(=O)=O)[C@@H](O)[C@@H]1F
61% |  | CC[C@H](C)Sc1nn([C@@H]2O[C@H](COS(N)(=O)=O)[C@@H](O)[C@@H]2F)c2ncnc(N)c12
63% |  | CC[C@@H](C)Sc1nn([C@@H]2O[C@H](COS(N)(=O)=O)[C@@H](O)[C@@H]2F)c2ncnc(N)c12
